SMILES strings stand for the structures. Some results are limits rather than exact numbers.

Data set [1] in a line: Stability study: half-life in neutral aqueous solutions. Conditions: xylyl substituted derivatives. In kind it is physicochemical. From the text: The introduction of the meta-xylyl ring on the silicon-rosindolizine bridge as found to impart substantial stability compared to a tolyl ring on the silicon-rosindolizine bride. […] This increased stability is critically important to some biological imaging applications. The meta-xylyl substituted derivative retain very similar spectral properties to the tolyl derivatives with absorption and emission observed in the SWIR region. […] Application in night vision, solar cells, and photodetectors are also possible with materials absorbing in this spectral region. […] The quantum yield is near 0.01-0.05% in these environments with peak emission of SiRos1 at ˜1350 nm (FIG. 13) and peak emission of SiRos2>1550 nm.

Data set [2] in a line: Emission studies (SWIR emission spectra, 980 nm excitation). In kind it is physicochemical. Particulars: organic solvent (dichloromethane) / water when encapsulated in a polymer; SiRos1 in DCM (FIG. 13). The protocol:
0.1 mg of silicone-based compound was combined with 10 mg DSPE-mPEG2000 (1% loading of dye by mass) in 3 mL of dichloromethane (DCM) in a 10 mL scintillation vial. The solution was vortexed for 10 seconds to homogenously mix the components. DCM was evaporated from the solution on a rotary evaporator at 50° C. until the solution forms a thin paste around the vial. Subsequently, the vial was placed on high vacuum for a half an hour to remove any residual DCM. Next, 3 mL of D2O was added and the resulting mixture was sonicated for one minute with gentle swirling to dissolve the polymer and dye together. The mixture was syringe filtered (0.45 μm) to remove any unencapsulated compound.
The emission spectra of the dyes were recorded from 1000-2500 nm using a liquid nitrogen cooled InAs fluorimeter from Horiba. A 980 nm DPSS (diode pumped solid state laser, max power 2 W) laser was used as the excitation source and the chopper signal was split from the chopper control to the lock-in-amplifier as a reference signal and the trigger signal to the laser controller. All studies were performed at 1e-5 M in DCM or 0.1 mg of dye per 3 mL D2O solution (for D2O, the dyes were solubilized in a commercially available DSPE-mPEG2000 nanoparticle, preparation previously supplied).

For the compound `CCCCC(CC)C[Si]1(CC(CC)CCCC)c2cc(-c3c(-c4ccccc4)c(-c4ccc(N(C)C)cc4)c4cc(-c5ccc(N(C)C)cc5)ccn34)ccc2C(c2c(C)cccc2C)=c2cc/c(=C3\C(c4ccccc4)=C(c4ccc(N(C)C)cc4)c4cc(-c5ccc(N(C)C)cc5)cc[n+]43)cc21.[O-][Cl+3]([O-])([O-])[O-]` (centres unmarked) [SiRos3, (Z)-3-(7-(1,7-bis(4-(dimethylamino)phenyl)-2-phenylindolizin-3-yl)-10-(2,6-dimethylphenyl)-5,5-bis(2-ethylhexyl)dibenzo[b,e]silin-3(5H)-ylidene)-1,7-bis(4-(dimethylamino)phenyl)-2-phenyl-3H-indolizin-4-ium perchlorate], in data set [1], the half-life entry is on record as “longer than a week”. In the case of `CCCCC(CC)C[Si]1(CC(CC)CCCC)c2cc(-c3c(-c4ccccc4)c(C)c4ccccn34)ccc2C(c2c(C)cccc2C)=c2cc/c(=C3\C(c4ccccc4)=C(C)c4cccc[n+]43)cc21.[O-][Cl+3]([O-])([O-])[O-]` (centres unmarked) [SiRos1, (Z)-3-(10-(2,6-dimethylphenyl)-5,5-bis(2-ethylhexyl)-7-(1-methyl-2-phenylindolizin-3-yl)dibenzo[b,e]silin-3(5H)-ylidene)-1-methyl-2-phenyl-3H-indolizin-4-ium perchlorate], the half-life result in data set [1] is listed as “longer than a week”. In addition, the peak emission in data set [2] is roughly 1350 nm. The matching figures for `CCCCC(CC)CC1=C(c2ccccc2)/C(=c2\ccc3c(c2)[Si](CC(CC)CCCC)(CC(CC)CCCC)c2cc(-c4c(-c5ccccc5)c(CC(CC)CCCC)c5cc(-c6ccc(N(C)C)cc6)ccn45)ccc2C=3c2c(C)cccc2C)[n+]2ccc(-c3ccc(N(C)C)cc3)cc21.[O-][Cl+3]([O-])([O-])[O-]` (centres unmarked) [SiRos2, (Z)-7-(4-(dimethylamino)phenyl)-3-(7-(7-(4-(dimethylamino)phenyl)-1-(2-ethylhexyl)-2-phenylindolizin-3-yl)-10-(2,6-dimethylphenyl)-5,5-bis(2-ethylhexyl)dibenzo[b,e]silin-3(5H)-ylidene)-1-(2-ethylhexyl)-2-phenyl-3H-indolizin-4-ium perchlorate]: “longer than a week” and greater than 1550 nm.

The values above are taken from US12409238B2, “Silicone-based dyes with short wavelength infrared absorption and emission and methods for making and using the same” (UNIVERSITY OF MISSISSIPPI, priority 2021, dated 2025).
